# Reference: patent US12629363B2, “Prophylaxis and treatment of angioedema” (PHARVARIS GMBH, priority 2020, dated 2026)
# Experiments:
# [1] = target: T1, cynomolgus monkey B2 receptor (Macaca fascicularis, UniProt A0A7N9CWN6); test: Antagonist potency in cells expressing cynomolgus monkey B2 receptor; type: cell-based; details: read-out: Kb value to antagonize BK activation
# T1 sequence (A0A7N9CWN6 1-391): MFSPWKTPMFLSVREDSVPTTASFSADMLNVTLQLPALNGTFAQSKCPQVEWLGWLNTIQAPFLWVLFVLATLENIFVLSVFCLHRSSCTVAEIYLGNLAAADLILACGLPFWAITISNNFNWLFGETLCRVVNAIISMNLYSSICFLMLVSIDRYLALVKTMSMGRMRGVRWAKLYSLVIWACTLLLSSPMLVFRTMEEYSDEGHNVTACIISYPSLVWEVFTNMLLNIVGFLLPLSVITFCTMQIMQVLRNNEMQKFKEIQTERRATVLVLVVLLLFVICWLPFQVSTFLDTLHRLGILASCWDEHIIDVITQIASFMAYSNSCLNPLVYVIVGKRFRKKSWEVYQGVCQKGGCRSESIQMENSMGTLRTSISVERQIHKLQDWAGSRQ
# From the text: (§1) The bradykinin B2 receptor is well known for its species selective pharmacology (Paquet et al., Br. J. Pharmacol. (126), 1083-1090, 1999 (DOI: 10.1038/sj.bjp.0702403); Burgess et al., Br. J. Pharmacol. (129), 77-86, 2000 (DOI: 10.1038/sj.bjp.0703012)). […] Pharmacol. 11:916; DOI: 10.3389/fphar.2020.00916.
# rat B2 receptor = target: T2, rat B2 receptor (Rattus norvegicus, UniProt P25023); test: Antagonist potency in cells expressing rat B2 receptor; type: cell-based; details: rat B2 receptor
# T2 construct: expressed in transfected cells
# T2 sequence (P25023 1-396): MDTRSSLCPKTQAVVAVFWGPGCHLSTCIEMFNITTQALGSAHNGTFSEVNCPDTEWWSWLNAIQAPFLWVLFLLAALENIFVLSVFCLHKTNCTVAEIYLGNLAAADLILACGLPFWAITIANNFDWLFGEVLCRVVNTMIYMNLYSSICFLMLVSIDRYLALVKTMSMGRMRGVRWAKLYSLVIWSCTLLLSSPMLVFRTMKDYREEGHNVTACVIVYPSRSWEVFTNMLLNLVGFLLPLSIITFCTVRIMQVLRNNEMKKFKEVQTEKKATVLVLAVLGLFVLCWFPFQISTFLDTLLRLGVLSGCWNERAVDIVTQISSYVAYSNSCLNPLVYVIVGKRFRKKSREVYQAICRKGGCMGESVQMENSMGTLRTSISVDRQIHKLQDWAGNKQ
# From the text: as §1
# mouse B2 receptor = target: T3, mouse B2 receptor (Mus musculus, UniProt P32299); test: Antagonist potency in cells expressing mouse B2 receptor; type: cell-based; details: mouse B2 receptor
# T3 construct: expressed in transfected cells
# T3 sequence (P32299 1-392): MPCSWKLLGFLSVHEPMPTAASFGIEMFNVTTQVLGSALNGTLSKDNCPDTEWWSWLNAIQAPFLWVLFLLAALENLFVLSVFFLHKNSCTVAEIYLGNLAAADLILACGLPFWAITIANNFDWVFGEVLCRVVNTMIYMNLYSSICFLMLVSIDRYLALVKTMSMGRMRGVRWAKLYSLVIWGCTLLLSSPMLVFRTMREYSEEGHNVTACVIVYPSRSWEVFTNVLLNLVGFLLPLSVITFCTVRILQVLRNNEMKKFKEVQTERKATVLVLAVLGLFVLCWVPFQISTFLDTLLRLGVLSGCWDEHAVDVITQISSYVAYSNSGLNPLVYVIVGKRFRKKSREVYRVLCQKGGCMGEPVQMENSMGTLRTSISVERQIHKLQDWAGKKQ
# From the text: as §1
# dog B2 receptor = target: T4, dog B2 receptor (Canis lupus familiaris, UniProt Q9BDQ4); test: Antagonist potency in cells expressing dog B2 receptor; type: cell-based; details: dog B2 receptor
# T4 construct: expressed in transfected cells
# T4 sequence (Q9BDQ4 1-392): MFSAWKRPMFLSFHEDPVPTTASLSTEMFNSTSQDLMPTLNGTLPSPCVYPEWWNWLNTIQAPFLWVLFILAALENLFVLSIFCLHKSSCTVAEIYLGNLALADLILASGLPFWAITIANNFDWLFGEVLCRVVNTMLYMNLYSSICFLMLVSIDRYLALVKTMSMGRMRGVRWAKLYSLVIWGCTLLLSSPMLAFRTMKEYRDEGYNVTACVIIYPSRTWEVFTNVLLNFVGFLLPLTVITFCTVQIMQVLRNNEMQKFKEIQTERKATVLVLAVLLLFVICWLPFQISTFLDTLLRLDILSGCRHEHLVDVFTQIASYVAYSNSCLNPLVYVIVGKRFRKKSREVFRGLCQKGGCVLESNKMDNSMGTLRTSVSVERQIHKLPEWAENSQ
# From the text: as §1
# acute HAE attacks = details: cited from earlier work
# [2] = in vivo; cited from earlier work
# BK B2 receptor = target: T5, BK B2 receptor (Homo sapiens, UniProt P30411); details: cited from earlier work
# T5 sequence (P30411 1-391): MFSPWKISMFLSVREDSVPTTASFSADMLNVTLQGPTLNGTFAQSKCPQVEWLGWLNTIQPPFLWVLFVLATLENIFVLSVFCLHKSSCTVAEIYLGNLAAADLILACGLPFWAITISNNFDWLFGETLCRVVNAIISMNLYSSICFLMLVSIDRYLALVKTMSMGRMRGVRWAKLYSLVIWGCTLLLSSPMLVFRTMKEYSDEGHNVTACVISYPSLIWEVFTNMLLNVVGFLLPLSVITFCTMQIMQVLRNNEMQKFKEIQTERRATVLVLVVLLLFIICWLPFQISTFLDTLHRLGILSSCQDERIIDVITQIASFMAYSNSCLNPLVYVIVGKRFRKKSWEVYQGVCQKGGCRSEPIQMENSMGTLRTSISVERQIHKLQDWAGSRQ
# [3] = Drug-drug interaction trial with itraconazole, PK (Example 5)
# Protocol: Thirteen healthy subjects were enrolled and completed the study.
# On Days 4 to 8, subjects received once daily oral doses of 200 mg itraconazole one hour before start of a standard meal.
# Trough plasma concentrations of itraconazole were determined by taking predose plasma samples on Days 4-7, to document exposure to itraconazole.
Compound,Kb [1] [nM],Kb (rat B2 receptor) [nM],Kb (mouse B2 receptor) [nM],Kb (dog B2 receptor) [nM],"time after which therapeutic response to an acute HAE attack wanes (acute HAE attacks; human, in vivo)","onset of relief in acute HAE attacks (acute HAE attacks; placebo 19.8 h, Lumry et al. 2011) [h]",half-life [2] [h],"Time plasma level above EC85 at a 75% confidence level (BK B2 receptor; in vivo, sc) [h]","Time plasma level above EC85 at a 75% confidence level, DBP (BK B2 receptor; in vivo, sc) [h]","Time plasma level above EC85 at a 75% confidence level, MAP (BK B2 receptor; in vivo, sc) [h]",intrinsic PD potency at the K B2 receptor (BK B2 receptor; in vivo) [nM],time plasma concentration above EC85 (85% effective) at 50% probability (BK B2 receptor; in vivo) [h],"EC85 (published, BK challenge) (BK B2 receptor; plasma concentration, FDA Clinical Pharmacology Review Firazyr) [µg/mL]","mean predose plasma concentration (Ctrough) ([3]; Day 4, itraconazole 200 mg dosing) [ng/mL]","mean predose plasma concentration (Ctrough) ([3]; Day 7, itraconazole 200 mg dosing) [ng/mL]"
NC(N)=NCCC[C@@H](N)C(=O)N[C@@H](CCCN=C(N)N)C(=O)N1CCC[C@H]1C(=O)N1C[C@H](O)C[C@H]1C(=O)NCC(=O)N[C@@H](Cc1cccs1)C(=O)N[C@@H](CO)C(=O)N1Cc2ccccc2C[C@@H]1C(=O)N1[C@H](C(=O)N[C@@H](CCCN=C(N)N)C(=O)O)C[C@@H]2CCCC[C@@H]21 [icatibant],4.06,5.6,4.4,30.7,approximately 6 hours,2.0,1.4,5.5,5.5,5.5,8.9,5.5,0.0538,,
CCC(C)n1ncn(-c2ccc(N3CCN(c4ccc(OCC5COC(Cn6cncn6)(c6ccc(Cl)cc6Cl)O5)cc4)CC3)cc2)c1=O (stereo not drawn) [itraconazole],,,,,,,,,,,,,,386 ± 82.2,597 ± 178
